Assay results from patent US8394801B2, “Quinoxaline derivatives and their use for treating benign and malignant tumour disorders” (Aeterna Zentaris GmbH, priority 2009, dated 2013).
pEC50: −log10 of the molar value.

Tests used:
A549 = assay: Proliferation assay (Alamar Blue / XTT), A549; format: cell-based; conditions: Homo sapiens; cell line A549 (lung)
PC-3 = assay: Proliferation assay (Alamar Blue / XTT), PC-3; format: cell-based; conditions: Homo sapiens, cell line PC3 (prostate)
HCT116 = assay: Proliferation assay (Alamar Blue / XTT), HCT116; format: cell-based; conditions: Homo sapiens; cell line HCT-116 (colon)
SKOV-3 = assay: Proliferation assay (Alamar Blue / XTT), SKOV-3; format: cell-based; conditions: Homo sapiens, SK-OV-3; cell line SKOV-3 (ovaries)
U87MG = assay: Proliferation assay (Alamar Blue / XTT), U87MG; format: cell-based; conditions: Homo sapiens, U-87 MG; cell line U87MG (glioma)
MDA MB468 = assay: Proliferation assay (Alamar Blue / XTT), MDA MB468; format: cell-based; conditions: Homo sapiens, MDA-MB-468; cell line MDA-MB468 (breast)
NCI-H460 = assay: Proliferation assay (Alamar Blue / XTT), NCI-H460; format: cell-based; conditions: Homo sapiens; cell line NCI-H460 (lung)
RKOP27 = assay: Proliferation assay (Alamar Blue / XTT), RKOP27; format: cell-based; conditions: Homo sapiens; cell line RKOp27 (colon)
L1210 VCR = assay: XTT proliferation test, vincristine-resistant L1210; format: cell-based; conditions: Mus musculus, vincristine-resistant cell line L1210 (leukaemia)
Excerpt: (§1) For further characterization, the substances according to the invention were examined in resistant tumour cell lines compared to non-resistant wild-type tumour cell lines.
(§2) The cell lines examined are the cell line A2780 (ovary), the cis-platin-resistant cell line A2780 (ovary), the cell line L1210 (leukaemia), the vincristine-resistant cell line L1210 (leukaemia), the cell line MESSA (uterus), the doxorubicin-resistant cell line MESSA Dx5 (uterus), the cell line NCIH69 (lung) and the multi-drug-resistant cell line NCIH69 AR (lung).

MESSA = assay: XTT proliferation test, MESSA; format: cell-based; conditions: Homo sapiens, MES-SA, cell line MESSA (uterus), non-resistant
Excerpt: as §1, §2

A2780 = assay: XTT proliferation test, A2780; format: cell-based; conditions: Homo sapiens, cell line A2780 (ovary), non-resistant
Excerpt: as §1, §2

NCI H69 = assay: XTT proliferation test, NCI H69; format: cell-based; conditions: Homo sapiens, cell line NCIH69 (lung), non-resistant
Excerpt: as §1, §2

A2780 cis-Pt = assay: XTT proliferation test, cis-platin-resistant A2780; format: cell-based; conditions: Homo sapiens, cis-platin-resistant cell line A2780 (ovary)
Excerpt: as §1, §2

L1210 = assay: XTT proliferation test, L1210; format: cell-based; conditions: Mus musculus, cell line L1210 (leukaemia), non-resistant
Excerpt: as §1, §2

MESSA DX5 = assay: XTT proliferation test, doxorubicin-resistant MESSA Dx5; format: cell-based; conditions: Homo sapiens, MES-SA/Dx5, doxorubicin-resistant cell line MESSA Dx5 (uterus)
Excerpt: as §1, §2

NCI H69 AR = assay: XTT proliferation test, multi-drug-resistant NCI H69 AR; format: cell-based; conditions: Homo sapiens, NCI-H69AR, multi-drug-resistant cell line NCIH69 AR (lung)
Excerpt: as §1, §2

L363 = assay: Proliferation assay (Alamar Blue / XTT), L363; format: cell-based; conditions: Homo sapiens, L-363; cell line L363 (leukaemia)
KB-HeLa = assay: Proliferation assay (Alamar Blue / XTT), KB-HeLa; format: cell-based; conditions: Homo sapiens; cell line KB/HeLa (cervix)
LNCaP = assay: Proliferation assay (Alamar Blue / XTT), LNCaP; format: cell-based; conditions: Homo sapiens; cell line LnCap (prostate)
NALM-6 = assay: Proliferation assay (Alamar Blue / XTT), NALM-6; format: cell-based; conditions: Homo sapiens; cell line NALM-6 (leukaemia)
TMM = assay: Proliferation assay (Alamar Blue / XTT), TMM; format: cell-based; conditions: Homo sapiens; cell line TMM (leukaemia)
MOLT-3 = assay: Proliferation assay (Alamar Blue / XTT), MOLT-3; format: cell-based; conditions: Homo sapiens; cell line MOLT-3 (leukaemia)
MDA-MB435 = assay: Proliferation assay (Alamar Blue / XTT), MDA-MB435; format: cell-based; conditions: Homo sapiens, MDA-MB-435; cell line MDA-MBA435 (breast)
MCF-7 = assay: Proliferation assay (Alamar Blue / XTT), MCF-7; format: cell-based; conditions: Homo sapiens, MCF7; cell line MCF-7 (breast)
MOLT-16 = assay: Proliferation assay (Alamar Blue / XTT), MOLT-16; format: cell-based; conditions: Homo sapiens; cell line MOLT-16 (leukaemia)
HSB-2 = assay: Proliferation assay (Alamar Blue / XTT), HSB-2; format: cell-based; conditions: Homo sapiens, HSB2; cell line HSB-2 (leukaemia)
RS4, 11 = assay: Proliferation assay (Alamar Blue / XTT), RS4, 11; format: cell-based; conditions: Homo sapiens; cell line RS4,11 (leukaemia)

Structure (SMILES)	pEC50 (A549)	pEC50 (PC-3)	pEC50 (HCT116)	pEC50 (SKOV-3)	pEC50 (U87MG)	pEC50 (NCI-H460)	pEC50 (L1210 VCR)	pEC50 (A2780)	pEC50 (A2780 cis-Pt)	melting point	pEC50 (L1210)	pEC50 (MDA MB468)	pEC50 (RKOP27)	pEC50 (MESSA)	pEC50 (NCI H69)	pEC50 (MESSA DX5)	pEC50 (NCI H69 AR)	other results
Cc1cc(-c2ccc3ncc(NC(=O)NC(C)(C)C)nc3c2)cc(C)c1O [Compound 9, 1-tert-Butyl-3-[7-(4-hydroxy-3,5-dimethylphenyl)quinoxalin-2-yl]urea]	6.54	6.95	6.64	6.61	6.74	6.62						6.58	6.75					
CCNC(=S)Nc1cnc2ccc(-c3cc(C)c(O)c(C)c3)cc2n1 [Compound 22, 1-Ethyl-3-[7-(4-hydroxy-3,5-dimethylphenyl)quinoxalin-2-yl]thiourea]	8.10	7.96	8.15	7.52	8.70	7.57	7.72	7.74	7.85	243 to 244 °C	7.82	7.28	7.55	6.85	8.00	7.42	8.10	
CCCNC(=O)Nc1cnc2ccc(-c3cc(C)c(O)c(C)c3)cc2n1 [Compound 36, 1-[7-(4-Hydroxy-3,5-dimethylphenyl)quinoxalin-2-yl]-3-propylurea]	7.47	8.05	7.37	7.38	6.95	7.19				276 to 277 °C		7.37						
CCCCNC(=O)Nc1cnc2ccc(-c3cc(C)c(O)c(C)c3)cc2n1 [Compound 18, 1-Butyl-3-[7-(4-hydroxy-3,5-dimethylphenyl)quinoxalin-2-yl]urea]	7.34	7.80	7.68	7.49	8.10	7.42				276 to 280 °C		7.52						
Cc1cc(-c2ccc3ncc(NC(=S)NC(C)C)nc3c2)cc(C)c1O [Compound 31, 1-[7-(4-Hydroxy-3,5-dimethylphenyl)quinoxalin-2-yl]-3-isopropylthiourea]	7.64	7.82	7.52	7.35	7.89	7.22				269 to 271 °C		7.60						

The next lines start with results.

pEC50 (A549)	pEC50 (PC-3)	pEC50 (HCT116)	pEC50 (SKOV-3)	pEC50 (U87MG)	pEC50 (NCI-H460)	pEC50 (L1210 VCR)	pEC50 (A2780)	pEC50 (A2780 cis-Pt)	melting point	pEC50 (L1210)	Structure (SMILES)	pEC50 (MDA MB468)	pEC50 (RKOP27)	pEC50 (MESSA)	pEC50 (NCI H69)	pEC50 (MESSA DX5)	pEC50 (NCI H69 AR)	other results
7.80	7.92	7.44	7.30	6.65	7.28				285 to 286 °C		Cc1cc(-c2ccc3ncc(NC(=S)NC4CCC4)nc3c2)cc(C)c1O [Compound 34, 1-Cyclobutyl-3-[7-(4-hydroxy-3,5-dimethylphenyl)quinoxalin-2-yl]-thiourea]	7.52	7.24					
8.05	8.05	7.80	7.57	8.52	7.52				278 to 280 °C		CCCCNC(=S)Nc1cnc2ccc(-c3cc(C)c(O)c(C)c3)cc2n1 [Compound 32, 1-Butyl-3-[7-(4-hydroxy-3,5-dimethylphenyl)quinoxalin-2-yl]thiourea]	7.70						
8.05	8.52	8.52	7.80	8.70	7.68	8.40	7.66	7.72	274 to 276 °C	8.30	Cc1cc(-c2ccc3ncc(NC(=S)NC4CC4)nc3c2)cc(C)c1O [Compound 23, 1-Cyclopropyl-3-[7-(4-hydroxy-3,5-dimethylphenyl)quinoxalin-2-yl]-thiourea]	6.83	7.70	7.32	8.40	7.80	9.10	
7.54	7.55	7.62	7.40	8.00	7.33	8.40	9.52	9.30	280 to 283 °C	8.70	Cc1cc(-c2ccc3ncc(NC(=O)NC(C)C)nc3c2)cc(C)c1O [Compound 17, 1-[7-(4-Hydroxy-3,5-dimethylphenyl)quinoxalin-2-yl]-3-isopropylurea]	7.41	7.59	6.82	7.57	6.86	7.07	pEC50 (L363): 7.11; pEC50 (KB-HeLa): 7.43; pEC50 (LNCaP): 7.40; pEC50 (NALM-6): 7.27; pEC50 (TMM): 7.49; pEC50 (MOLT-3): 7.44; pEC50 (MDA-MB435): 7.74; pEC50 (MCF-7): 7.49; pEC50 (MOLT-16): 7.25; pEC50 (HSB-2): 7.43; pEC50 (RS4, 11): 7.43
